According to PubChem BioAssay (NCI):
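Cultured in 96-well plates, cells were exposed to test compound for 48 hours across five concentrations. Abbreviation: GI50, concentration required for 50% inhibition of growth. At the TGI there is no net growth.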

What was measured:
Assay in all cases: DTP human tumour cell line panel, 48 h
COLO 205 colon = system: COLO 205 colon
K-562 leukemia = system: K-562 leukemia
KM12 colon = system: KM12 colon
MOLT-4 leukemia = system: MOLT-4 leukemia
TK-10 renal = system: TK-10 renal
U251 CNS = system: U251 CNS
UACC-257 melanoma = system: UACC-257 melanoma
UO-31 renal = system: UO-31 renal
HL-60(TB) leukemia = system: HL-60(TB) leukemia
HCT-116 colon = system: HCT-116 colon

Work on Cc1cc(Cl)ccc1N=C1NC(=O)C(CC(=O)Nc2ccc([N+](=O)[O-])cc2[N+](=O)[O-])S1 (stereo not given) yielded a TGI (COLO 205 colon) of over 100 µM, a TGI (K-562 leukemia) of over 100 µM and a TGI (KM12 colon) of over 100 µM. For the same molecule, the TGI (MOLT-4 leukemia) was 55.5 µM, the TGI (TK-10 renal) was over 100 µM and the TGI (U251 CNS) was 59.9 µM. The TGI (UACC-257 melanoma) was 90.3 µM and the TGI (UO-31 renal) was 42.6 µM.
Molecule Cc1ccn2c(c1)nc1nc3ccccc3nc12 has a TGI (COLO 205 colon) of over 100 µM, a TGI (HL-60(TB) leukemia) of over 100 µM and a TGI (K-562 leukemia) of over 100 µM. For the same molecule, the TGI (KM12 colon) was over 100 µM, the TGI (TK-10 renal) was over 100 µM and the TGI (U251 CNS) was over 100 µM. It also gave a TGI (UACC-257 melanoma) of over 100 µM and a TGI (UO-31 renal) of over 100 µM.
For COc1ccccc1CNCCCN1C(=O)c2ccc3c4c(ccc(c24)C1=O)C(=O)N(CCCOCCCCOCCCN)C3=O, the GI50 (COLO 205 colon) was 0.233 µM, the TGI (COLO 205 colon) was 0.454 µM and the GI50 (HL-60(TB) leukemia) was 0.668 µM. For the same molecule, the TGI (HL-60(TB) leukemia) was 2.06 µM, the GI50 (KM12 colon) was 1.26 µM and the TGI (KM12 colon) was 2.79 µM. It also gave a GI50 (MOLT-4 leukemia) of 0.538 µM, a TGI (MOLT-4 leukemia) of 2.55 µM and a GI50 (TK-10 renal) of 1.97 µM. It also gave a TGI (TK-10 renal) of 3.93 µM, a GI50 (U251 CNS) of 1.23 µM and a TGI (U251 CNS) of 2.69 µM. It also gave a GI50 (UACC-257 melanoma) of 0.272 µM, a TGI (UACC-257 melanoma) of 0.892 µM and a GI50 (UO-31 renal) of 1.55 µM. For the same molecule, the TGI (UO-31 renal) was 3.15 µM.
Molecule COC(=O)/C(=N\Nc1nnc(C)n1N)C(C#N)c1ccc(Cl)cc1 (stereo not given) has a TGI (COLO 205 colon) of over 100 µM, a TGI (HCT-116 colon) of over 100 µM and a TGI (KM12 colon) of over 100 µM. It also gave a TGI (TK-10 renal) of over 100 µM, a TGI (U251 CNS) of over 100 µM and a TGI (UACC-257 melanoma) of over 100 µM. It also gave a TGI (UO-31 renal) of over 100 µM.
Oc1cccnc1CN1CCCCC1 was tested, and the TGI (COLO 205 colon) was over 100 µM, the TGI (HCT-116 colon) was over 100 µM and the TGI (K-562 leukemia) was over 100 µM. It also gave a TGI (KM12 colon) of over 100 µM, a TGI (MOLT-4 leukemia) of over 100 µM and a TGI (TK-10 renal) of over 100 µM. For the same molecule, the TGI (U251 CNS) was over 100 µM, the TGI (UACC-257 melanoma) was over 100 µM and the TGI (UO-31 renal) was over 100 µM.
NCCCCN(CCCN)/[N+]([O-])=N\O gave a TGI (COLO 205 colon) of over 100 µM, a TGI (HCT-116 colon) of over 100 µM and a TGI (HL-60(TB) leukemia) of over 100 µM. For the same molecule, the TGI (K-562 leukemia) was over 100 µM, the TGI (KM12 colon) was over 100 µM and the TGI (MOLT-4 leukemia) was over 100 µM. The TGI (U251 CNS) was over 100 µM, the TGI (UACC-257 melanoma) was over 100 µM and the TGI (UO-31 renal) was over 100 µM.
In the case of COc1cc(-c2ccc3c(c2)NC(=O)/C3=C\c2ccc[nH]2)ccc1O, the GI50 (COLO 205 colon) is reported as 0.467 µM, the TGI (COLO 205 colon) is reported as over 50 µM and the GI50 (HCT-116 colon) is reported as 0.0228 µM. The TGI (HCT-116 colon) was over 50 µM, the GI50 (HL-60(TB) leukemia) was 0.0155 µM and the GI50 (K-562 leukemia) was under 0.0118 µM. For the same molecule, the TGI (K-562 leukemia) was over 50 µM, the GI50 (KM12 colon) was 0.0214 µM and the TGI (KM12 colon) was over 50 µM. It also gave a GI50 (MOLT-4 leukemia) of 0.032 µM, a TGI (MOLT-4 leukemia) of over 22.1 µM and a GI50 (TK-10 renal) of 1.72 µM. It also gave a TGI (TK-10 renal) of over 50 µM, a GI50 (U251 CNS) of 0.0221 µM and a TGI (U251 CNS) of over 50 µM. The GI50 (UO-31 renal) was 0.0354 µM and the TGI (UO-31 renal) was over 50 µM.
Work on Cn1c2c(c3ccccc31)CC1c3c(c4ccccc4n3C)CC21 (stereo not given) yielded a TGI (COLO 205 colon) of over 100 µM, a TGI (HL-60(TB) leukemia) of over 100 µM and a TGI (K-562 leukemia) of over 100 µM. The TGI (KM12 colon) was over 100 µM, the TGI (MOLT-4 leukemia) was over 100 µM and the TGI (TK-10 renal) was over 100 µM. It also gave a TGI (U251 CNS) of over 100 µM, a TGI (UACC-257 melanoma) of over 100 µM and a TGI (UO-31 renal) of over 100 µM.
Cc1ccc(C2=C(c3ccccc3)C(Br)(c3ccc(C)cc3)C(c3ccccc3)=C2c2ccc(C)cc2)cc1 was tested, and the TGI (COLO 205 colon) was over 100 µM, the TGI (HCT-116 colon) was over 100 µM and the TGI (HL-60(TB) leukemia) was over 100 µM. The TGI (K-562 leukemia) was over 100 µM, the TGI (KM12 colon) was over 100 µM and the TGI (MOLT-4 leukemia) was over 100 µM. It also gave a TGI (TK-10 renal) of over 100 µM, a TGI (U251 CNS) of over 100 µM and a TGI (UACC-257 melanoma) of over 100 µM.
For O=C1OC(C(O)CO)C(=O)C1=O (stereo not given), the GI50 (COLO 205 colon) was 2800 µM, the TGI (COLO 205 colon) was 6730 µM and the GI50 (HCT-116 colon) was 2460 µM. For the same molecule, the TGI (HCT-116 colon) was 6520 µM, the GI50 (K-562 leukemia) was 2860 µM and the TGI (K-562 leukemia) was 9080 µM. For the same molecule, the GI50 (KM12 colon) was 3500 µM, the TGI (KM12 colon) was over 10000 µM and the GI50 (MOLT-4 leukemia) was 4120 µM. It also gave a TGI (MOLT-4 leukemia) of over 10000 µM, a GI50 (TK-10 renal) of 2080 µM and a TGI (TK-10 renal) of 3570 µM. It also gave a GI50 (U251 CNS) of 5090 µM, a TGI (U251 CNS) of over 10000 µM and a GI50 (UACC-257 melanoma) of over 10000 µM. For the same molecule, the TGI (UACC-257 melanoma) was over 10000 µM, the GI50 (UO-31 renal) was 1850 µM and the TGI (UO-31 renal) was 4600 µM.
